This note sets out measurements from patent US20250388605A1, “HETEROBIFUNCTIONAL COMPOUNDS AND METHODS OF TREATING DISEASE” (Halda Therapeutics OpCo, Inc., priority 2022, published 2025).

The structures appear in SMILES notation.

Assay [1] has as its system T-Rex 293 cell line SC3 cells having increased expression of androgen receptor protein due to exposure to doxycycline. As to the kind of experiment: Cellular growth inhibition, T-Rex 293 SC3 cells with doxycycline (increased androgen receptor expression), CellTiter-Glo. The settings on record: T-Rex 293 SC3 cells with 10 ng/mL doxycycline (increased androgen receptor expression), 72 hours, CellTiter-Glo 2.0. It counts as cell-based. Put shortly:
(§1)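 Doxycycline (10 ng/mL) was either included or omitted to toggle wild-type androgen receptor expression in SC3 cells, a T-Rex 293 clone, grown in stripped-serum, phenol red-free medium. After 72 hours with compound, viable cells were quantified by CellTiter-Glo 2.0.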
In general terms: Cellular ATP, detected with luciferase, serves as a proxy for viable cell number.

In another assay the test system is VCaP cells. As to the kind of experiment: Cellular growth inhibition assay for VCaP cells, CellTiter-Glo. It counts as cell-based, human. The following applies: 72 hours. Put shortly:
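GI50 values come from four-parameter curve fits of luminescence data normalized to a zero baseline. Compound, in medium with 0.5% DMSO, was added one day after plating and left for 72 h before CellTiter-Glo 2.0 addition.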

In assay [2] the test system is T-Rex 293 cell line SC3 cells lacking increased expression of androgen receptor protein. As to the kind of experiment: Cellular growth inhibition, T-Rex 293 SC3 cells without doxycycline (no increased androgen receptor expression), CellTiter-Glo. Type of assay: cell-based. The following applies: T-Rex 293 SC3 cells not exposed to doxycycline (no increased androgen receptor expression), 72 hours. In outline:
as §1

Another assay addresses T1, androgen receptor (Homo sapiens, UniProt P10275).
T1 construct: host or cells: unnamed cells, cytosolic fraction
T1 sequence (P10275 1-920): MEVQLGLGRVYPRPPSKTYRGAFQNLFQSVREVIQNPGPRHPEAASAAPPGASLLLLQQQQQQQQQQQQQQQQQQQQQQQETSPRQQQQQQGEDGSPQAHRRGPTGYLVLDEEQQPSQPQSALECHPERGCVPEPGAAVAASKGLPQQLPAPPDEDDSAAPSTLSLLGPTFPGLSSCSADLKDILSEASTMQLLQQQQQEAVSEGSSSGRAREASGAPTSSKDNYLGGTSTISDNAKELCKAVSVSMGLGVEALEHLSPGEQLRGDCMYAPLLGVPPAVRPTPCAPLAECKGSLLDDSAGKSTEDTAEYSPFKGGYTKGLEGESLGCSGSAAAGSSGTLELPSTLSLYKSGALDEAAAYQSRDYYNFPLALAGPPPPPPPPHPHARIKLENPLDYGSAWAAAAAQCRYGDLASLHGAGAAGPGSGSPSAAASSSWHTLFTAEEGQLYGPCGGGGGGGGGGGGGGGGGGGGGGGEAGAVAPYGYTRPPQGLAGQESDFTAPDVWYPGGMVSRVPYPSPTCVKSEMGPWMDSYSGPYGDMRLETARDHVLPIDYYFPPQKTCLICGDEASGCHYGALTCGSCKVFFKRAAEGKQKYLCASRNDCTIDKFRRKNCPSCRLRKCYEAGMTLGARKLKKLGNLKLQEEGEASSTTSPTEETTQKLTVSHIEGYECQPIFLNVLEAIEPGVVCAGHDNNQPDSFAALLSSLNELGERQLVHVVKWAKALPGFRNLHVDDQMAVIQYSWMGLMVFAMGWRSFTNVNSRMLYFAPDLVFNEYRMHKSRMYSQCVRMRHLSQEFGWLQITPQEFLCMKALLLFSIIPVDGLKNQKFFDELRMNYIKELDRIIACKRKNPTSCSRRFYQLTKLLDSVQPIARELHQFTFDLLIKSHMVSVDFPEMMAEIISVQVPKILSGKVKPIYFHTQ
As to the kind of experiment: Assay for binding affinity to androgen receptor ([3H]methyltrienolone radioligand competition, cell cytosol). The following applies: binding to the androgen receptor, 1 nM [3H]methyltrienolone, 24 hr at 4° C. The protocol:
Fractions of cell cytosol ([…]) were incubated for 24 hr at 4° C. with 1 nM [^3H]methyltrienolone in the absence or presence of the test compound in a buffer containing 25 mM Hepes-Tris (pH 7.4), 1 mM EDTA, 10 mM Na2MoO4, 2 mM DTT, 5 μM triamcinolone acetonide, and 10% glycerol. Nonspecific binding was determined in the presence of […] testosterone. Following incubation, the samples were filtered rapidly under vacuum through glass fiber filters (GF/B, Packard) presoaked with 0.3% PEI and rinsed several times with ice-cold 50 mM Tris-HCl using a 96-sample cell harvester (Unifilter, Packard). The filters were dried then counted for radioactivity in a scintillation counter (Topcount, Packard) using a scintillation cocktail (Microscint 0, Packard). The results are expressed as a percent inhibition of the control radioligand specific binding. The standard reference compound is testosterone, which is tested in each experiment at several concentrations to obtain a competition curve from which its IC50 is calculated.

Assay [3] addresses T2, progesterone receptor ligand binding domain (GST-tagged PR LBD) (Homo sapiens, UniProt P06401).
T2 construct: purchased Life Technologies A15905 or a15906
T2 sequence (P06401 679-913 limits assumed): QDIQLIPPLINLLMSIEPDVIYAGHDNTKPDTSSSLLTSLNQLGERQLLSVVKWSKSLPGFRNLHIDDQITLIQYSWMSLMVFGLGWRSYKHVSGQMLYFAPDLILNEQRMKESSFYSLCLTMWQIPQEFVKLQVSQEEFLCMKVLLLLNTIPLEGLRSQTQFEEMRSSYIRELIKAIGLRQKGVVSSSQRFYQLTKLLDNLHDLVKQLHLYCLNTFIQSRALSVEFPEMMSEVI
As to the kind of experiment: FP Assay for Binding Affinity to Progesterone Receptor (PolarScreen Progesterone Receptor Competitor Assay Kit). The following applies: fluorescence polarization, Fluormone tracer, 2 hours at room temperature. On the procedure: Exemplary compounds were tested for ability to bind to the progesterone receptor ligand binding domain (LBD).
Compounds were tested using the PolarScreen™ Progesterone Receptor Competitor Assay Kit (Life Technologies Cat #A15905 or a15906), as per the manufacturer's instructions. Briefly, GST-tagged PR LBD, Fluormone tracer, and compound were mixed and incubated for 2 hours at room temperature in the dark. Following incubation, the plates were spun at 3000×g for 30 seconds, then sealed with an optical adhesive cover, and fluorescence polarization was measured using appropriate excitation and emission filters with an EnVision Plate Reader (Perkin Elmer). Compound concentration vs. mP value were plotted in Prism (GraphPad). A four-parameter non-linear regression curve fit was applied to dose-response data to determine the half-maximal inhibitory concentration (IC50) for each test compound.
A general note: In fluorescence polarisation assays a small probe gives low polarisation when free and higher when bound to something large.

Another assay relates to T47D cells. As to the kind of experiment: Cellular Growth Inhibition Assay for T47D Cells (CellTiter-Glo). Type of assay: cell-based, human. The following applies: 72 hours. In outline:
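GI50 values derive from four-parameter regression of CellTiter-Glo 2.0 luminescence, using zero luminescence as baseline. Human breast cancer T47D cells (3000/well; DMEM, 10% FBS, 0.2 units/mL insulin) were exposed for 72 h to compound dilutions at 0.5% DMSO, with dosing starting 24 h after seeding.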

In general, GI50 refers to the concentration at which growth is held to half of that of the control. Read a high GI50 as lower sensitivity of the cells. The Ki is a dissociation constant, usually derived from enzyme kinetics or from competition with a known ligand. Low readings indicate tighter binding, high ones weaker binding. As usually defined, the IC50 is the midpoint of a concentration-inhibition curve. Low values mean inhibition by little substance, high ones a need for much substance.

Consider `CCS(=O)(=O)Nc1ccc(Oc2cccc(OCCOC3CCN(c4ccc(C(=O)N[C@H]5C(C)(C)[C@H](Oc6ccc(C#N)c(Cl)c6)C5(C)C)cc4)CC3)c2)c(-c2cn(C)c(=O)c3[nH]ccc23)c1` [Compound I-69, N-((1r, 3r)-3-(3-chloro-4-cyanophenoxy)-2,2,4,4-tetramethylcyclobutyl)-4-(4-(2-(3-(4-(ethylsulfonamido)-2-(6-methyl-7-oxo-6,7-dihydro-1H-pyrrolo[2,3-c]pyridin-4-yl)phenoxy)phenoxy)ethoxy)piperidin-1-yl)benzamide], for which the concentration for 50% growth inhibition (GI50) (in assay [1]; with VCaP cells (Homo sapiens); in assay [2]) was below 500 nM throughout. For the same compound, the Ki on androgen receptor is below 50 nM.

`CC(C)N(CCOc1cccc(Oc2ccc(C(C)(C)O)cc2-c2cn(C)c(=O)c3[nH]ccc23)c1F)C1CCN(c2ncc(C(=O)N[C@H]3C(C)(C)[C@H](Oc4ccc(C#N)c(Cl)c4)C3(C)C)cn2)CC1` [Compound I-224]: the GI50 (in assay [1]; with VCaP cells (Homo sapiens); in assay [2]; with T47D cells (Homo sapiens)) was below 500 nM each time. In addition, in assay [3], the IC50 lay in the range of 50 to 500 nM.

On to `Cn1cc(-c2cc(C(C)(C)O)ccc2Oc2cccc(OCCN3CCN(c4ncc5c(n4)CN([C@H]4C(C)(C)[C@H](Oc6ccc(C#N)c(Cl)c6)C4(C)C)C5=O)CC3)c2F)c2cc[nH]c2c1=O` [Compound I-227], for which the GI50 (in assay [1]; with VCaP cells; in assay [2]; in the assay on T47D cells) was below 500 nM throughout. The compound further showed a half-maximal inhibitory concentration (IC50) in assay [3] below 50 nM.

Regarding `CCS(=O)(=O)Nc1ccc(Oc2cccc(OCCOC3CCN(c4ccc(C(=O)N[C@H]5C(C)(C)[C@H](Oc6ccc(C#N)c(Cl)c6)C5(C)C)nc4)CC3)c2)c(-c2cn(C)c(=O)c3[nH]ccc23)c1` [Compound I-72, N-((1r, 3r)-3-(3-chloro-4-cyanophenoxy)-2,2,4,4-tetramethylcyclobutyl)-5-(4-(2-(3-(4-(ethylsulfonamido)-2-(6-methyl-7-oxo-6,7-dihydro-1H-pyrrolo[2,3-c]pyridin-4-yl)phenoxy)phenoxy)ethoxy)piperidin-1-yl)picolinamide], the GI50 (in assay [1]; in the assay with VCaP cells (Homo sapiens); in assay [2]) was below 500 nM in each case. This compound displayed an inhibition constant (Ki) on androgen receptor of 50 to 500 nM.

In the case of `Cn1cc(-c2cc(C(C)(C)O)ccc2Oc2cccc(OCCN3CC4(C3)CN(c3ncc(C(=O)N[C@H]5C(C)(C)[C@H](Oc6ccc(C#N)c(Cl)c6)C5(C)C)cn3)C4)c2F)c2cc[nH]c2c1=O` [Compound I-229], the GI50 was below 500 nM in assay [1], below 500 nM in the assay on VCaP cells, 500 to 1500 nM in assay [2] and below 500 nM with T47D cells. The compound further had an IC50 in assay [3] of 50 to 500 nM.

On to `Cn1cc(-c2cc(C(C)(C)O)ccc2Oc2ccc(OCC3CCN(c4ncc5c(n4)CN([C@H]4C(C)(C)[C@H](Oc6ccc(C#N)c(Cl)c6)C4(C)C)C5=O)CC3)cc2)c2cc[nH]c2c1=O` [Compound I-233], for which the 50% growth inhibitory concentration (GI50) was 500 to 1500 nM in assay [1], below 500 nM in the assay with VCaP cells (Homo sapiens), above 3000 nM in assay [2] and 500 to 1500 nM in the assay on T47D cells (Homo sapiens). For the same compound, the IC50 in assay [3] is above 2500 nM.

With `Cn1cc(-c2cc(C(C)(C)O)ccc2Oc2cccc(OCCN3CCC34CN(c3ncc(C(=O)N[C@H]5C(C)(C)[C@H](Oc6ccc(C#N)c(Cl)c6)C5(C)C)cn3)C4)c2F)c2cc[nH]c2c1=O` [Compound I-222], the GI50 in assay [1] is below 500 nM; in the assay with VCaP cells (Homo sapiens) it was below 500 nM; in assay [2], 500 to 1500 nM; in the assay on T47D cells (Homo sapiens), 500 to 1500 nM. This compound also displayed an IC50 in assay [3] of 500 to 2500 nM.

`CN(CCCCc1ccc(Oc2ccc(C(C)(C)O)cc2-c2cn(C)c(=O)c3[nH]ccc23)cc1)c1ncc(C(=O)N[C@H]2C(C)(C)[C@H](Oc3ccc(C#N)c(Cl)c3)C2(C)C)cn1` [Compound I-218]: the GI50 is below 500 nM in assay [1], 1500 to 3000 nM with VCaP cells (Homo sapiens), 1500 to 3000 nM in assay [2] and 500 to 1500 nM with T47D cells (Homo sapiens). The same compound had an IC50 in assay [3] of 50 to 500 nM.

For the compound `CCS(=O)(=O)Nc1ccc(Oc2cccc(N(C)CCNC3CCN(c4ncc(C(=O)N[C@H]5C(C)(C)[C@H](Oc6ccc(C#N)c(Cl)c6)C5(C)C)cn4)CC3)c2)c(-c2cn(C)c(=O)c3[nH]ccc23)c1` [Compound I-83], the GI50 is below 500 nM in assay [1], below 500 nM in the assay on VCaP cells (Homo sapiens), above 3000 nM in assay [2] and below 500 nM in the assay on T47D cells (Homo sapiens). For the same compound, the IC50 in assay [3] was in the range of 50 to 500 nM.

For `CC(C)N(CCN(C)C1CCN(c2ncc(C(=O)N[C@H]3C(C)(C)[C@H](Oc4ccc(C#N)c(Cl)c4)C3(C)C)cn2)CC1)c1cccc(Oc2ccc(C(C)(C)O)cc2-c2cn(C)c(=O)c3[nH]ccc23)c1F` [Compound I-226], the GI50 in assay [1] was below 500 nM; in the assay on VCaP cells, 500 to 1500 nM; in assay [2], 500 to 1500 nM; in the assay with T47D cells it was above 3000 nM. This compound returned an IC50 in assay [3] below 50 nM.

For the compound `CCS(=O)(=O)Nc1ccc(Oc2cccc(N3CC(C4CCN(c5ncc(C(=O)N[C@H]6C(C)(C)[C@H](Oc7ccc(C#N)c(Cl)c7)C6(C)C)cn5)CC4)C3)c2)c(-c2cn(C)c(=O)c3[nH]ccc23)c1` [Compound I-74], the GI50 (in assay [1]; in the assay with VCaP cells (Homo sapiens); in assay [2]; with T47D cells (Homo sapiens)) was below 500 nM in each case. In assay [3], the half-maximal inhibitory concentration (IC50) was above 2500 nM.

For `CCS(=O)(=O)c1ccc(Oc2cccc(CCCC3CCN(c4ncc(C(=O)N[C@H]5C(C)(C)[C@H](Oc6ccc(C#N)c(Cl)c6)C5(C)C)cn4)CC3)c2F)c(-c2cn(C)c(=O)c3[nH]ccc23)c1` [Compound I-245], the GI50 in assay [1] was below 500 nM; with VCaP cells, 500 to 1500 nM; in assay [2] it was above 3000 nM; in the assay with T47D cells, below 500 nM. In assay [3], this compound returned an IC50 of 500 to 2500 nM.
